Measured values as given in ChEMBL document CHEMBL1201861, “Genomics of Drug Sensitity in Cancer screening data, Wellcome Trust Sanger Institute”.

Key:
Test in all cases: cells
U2OS = type: functional, cell-based, Homo sapiens, U-2-OS; conditions: Homo sapiens, U2OS
Description: SANGER: Inhibition of human U-2-OS cell growth in a cell viability assay.

KOSC-2 = type: functional, cell-based, Homo sapiens; conditions: Homo sapiens, KOSC-2
Description: SANGER: Inhibition of human KOSC-2 cell growth in a cell viability assay.

MIA PaCa-2 = type: functional, cell-based, Homo sapiens; conditions: Homo sapiens, MIA PaCa-2
Description: SANGER: Inhibition of human MIA-PaCa-2 cell growth in a cell viability assay.

NCI-H446 = type: functional, cell-based; conditions: Homo sapiens
Description: SANGER: Inhibition of human NCI-H446 cell growth in a cell viability assay.

SW1573 = type: functional, cell-based, Homo sapiens; conditions: Homo sapiens, SW1573
Description: SANGER: Inhibition of human SW1573 cell growth in a cell viability assay.

MFM-223 = type: functional, cell-based, Homo sapiens; conditions: Homo sapiens, MFM-223
Description: SANGER: Inhibition of human MFM-223 cell growth in a cell viability assay.

CAMA-1 = type: functional, cell-based, Homo sapiens; conditions: Homo sapiens, CAMA-1
Description: SANGER: Inhibition of human CAMA-1 cell growth in a cell viability assay.

NMC-G1 = type: functional, cell-based, Homo sapiens; conditions: Homo sapiens, NMC-G1
Description: SANGER: Inhibition of human NMC-G1 cell growth in a cell viability assay.

EFM-19 = type: functional, cell-based, Homo sapiens; conditions: Homo sapiens, EFM-19
Description: SANGER: Inhibition of human EFM-19 cell growth in a cell viability assay.

A388 = type: functional, cell-based, Homo sapiens; conditions: Homo sapiens, A388
Description: SANGER: Inhibition of human A388 cell growth in a cell viability assay.

KM-H2 = type: functional, cell-based; conditions: Homo sapiens
Description: SANGER: Inhibition of human KM-H2 cell growth in a cell viability assay.

U-118-MG = type: functional, cell-based, Homo sapiens; conditions: Homo sapiens, U-118-MG
Description: SANGER: Inhibition of human U-118-MG cell growth in a cell viability assay.

A-431 = type: functional, cell-based, Homo sapiens; conditions: Homo sapiens, A-431
Description: SANGER: Inhibition of human A431 cell growth in a cell viability assay.

Ca9-22 = type: functional, cell-based, Homo sapiens; conditions: Homo sapiens, Ca9-22
Description: SANGER: Inhibition of human Ca9-22 cell growth in a cell viability assay.

NH-12 = type: functional, cell-based, Homo sapiens; conditions: Homo sapiens, NH-12
Description: SANGER: Inhibition of human NH-12 cell growth in a cell viability assay.

SK-N-AS = type: functional, cell-based, Homo sapiens; conditions: Homo sapiens, SK-N-AS
Description: SANGER: Inhibition of human SK-N-AS cell growth in a cell viability assay.

ME-180 = type: functional, cell-based; conditions: Homo sapiens
Description: SANGER: Inhibition of human ME-180 cell growth in a cell viability assay.

NCI-H1650 = type: functional, cell-based, Homo sapiens; conditions: Homo sapiens, NCI-H1650
Description: SANGER: Inhibition of human NCI-H1650 cell growth in a cell viability assay.

MC-IXC = type: functional, cell-based, Homo sapiens; conditions: Homo sapiens, MC-IXC
Description: SANGER: Inhibition of human MC-IXC cell growth in a cell viability assay.

JVM-2 = type: functional, cell-based; conditions: Homo sapiens
Description: SANGER: Inhibition of human JVM-2 cell growth in a cell viability assay.

LC-2-ad = type: functional, cell-based, Homo sapiens; conditions: Homo sapiens, LC-2-ad
Description: SANGER: Inhibition of human LC-2-ad cell growth in a cell viability assay.

GP5d = type: functional, cell-based, Homo sapiens; conditions: Homo sapiens, GP5d
Description: SANGER: Inhibition of human GP5d cell growth in a cell viability assay.

MDA-MB-453 = type: functional, cell-based, Homo sapiens; conditions: Homo sapiens, MDA-MB-453
Description: SANGER: Inhibition of human MDA-MB-453 cell growth in a cell viability assay.

LCLC-97TM1 = type: functional, cell-based, Homo sapiens; conditions: Homo sapiens, LCLC-97TM1
Description: SANGER: Inhibition of human LCLC-97TM1 cell growth in a cell viability assay.

ES7 = type: functional, cell-based, Homo sapiens; conditions: Homo sapiens, ES7
Description: SANGER: Inhibition of human ES7 cell growth in a cell viability assay.

Calu-6 = type: functional, cell-based, Homo sapiens; conditions: Homo sapiens, Calu-6
Description: SANGER: Inhibition of human Calu-6 cell growth in a cell viability assay.

KYSE-520 cell line = type: functional, cell-based, Homo sapiens; conditions: Homo sapiens, KYSE-520
Description: SANGER: Inhibition of human KYSE-520 cell growth in a cell viability assay.

A-375 = type: functional, cell-based, Homo sapiens; conditions: Homo sapiens, A-375
Description: SANGER: Inhibition of human A375 cell growth in a cell viability assay.

EFO-21 = type: functional, cell-based, Homo sapiens; conditions: Homo sapiens, EFO-21
Description: SANGER: Inhibition of human EFO-21 cell growth in a cell viability assay.

D-263MG = type: functional, cell-based, Homo sapiens; conditions: Homo sapiens, D-263MG
Description: SANGER: Inhibition of human D-263MG cell growth in a cell viability assay.

HCE-4 = type: functional, cell-based, Homo sapiens; conditions: Homo sapiens, HCE-4
Description: SANGER: Inhibition of human HCE-4 cell growth in a cell viability assay.

GAMG = type: functional, cell-based, Homo sapiens; conditions: Homo sapiens, GAMG
Description: SANGER: Inhibition of human GAMG cell growth in a cell viability assay.

COLO-320-HSR = type: functional, cell-based; conditions: Homo sapiens
Description: SANGER: Inhibition of human COLO-320-HSR cell growth in a cell viability assay.

A253 cell line = type: functional, cell-based, Homo sapiens; conditions: Homo sapiens, A253
Description: SANGER: Inhibition of human A253 cell growth in a cell viability assay.

SK-N-DZ = type: functional, cell-based, Homo sapiens; conditions: Homo sapiens, SK-N-DZ
Description: SANGER: Inhibition of human SK-N-DZ cell growth in a cell viability assay.

RPMI-2650 = type: functional, cell-based, Homo sapiens; conditions: Homo sapiens, RPMI-2650
Description: SANGER: Inhibition of human RPMI-2650 cell growth in a cell viability assay.

SW1783 = type: functional, cell-based; conditions: Homo sapiens
Description: SANGER: Inhibition of human SW1783 cell growth in a cell viability assay.

ONS-76 = type: functional, cell-based, Homo sapiens; conditions: Homo sapiens, ONS-76
Description: SANGER: Inhibition of human ONS-76 cell growth in a cell viability assay.

NCI-H720 = type: functional, cell-based; conditions: Homo sapiens
Description: SANGER: Inhibition of human NCI-H720 cell growth in a cell viability assay.

HSC-2 = type: functional, cell-based, Homo sapiens; conditions: Homo sapiens, HSC-2
Description: SANGER: Inhibition of human HSC-2 cell growth in a cell viability assay.

HuP-T4 = type: functional, cell-based, Homo sapiens; conditions: Homo sapiens, HuP-T4
Description: SANGER: Inhibition of human HuP-T4 cell growth in a cell viability assay.

GT3TKB = type: functional, cell-based, Homo sapiens; conditions: Homo sapiens, GT3TKB
Description: SANGER: Inhibition of human GT3TKB cell growth in a cell viability assay.

SW948 = type: functional, cell-based, Homo sapiens; conditions: Homo sapiens, SW948
Description: SANGER: Inhibition of human SW948 cell growth in a cell viability assay.

HT-3 = type: functional, cell-based, Homo sapiens; conditions: Homo sapiens, HT-3
Description: SANGER: Inhibition of human HT-3 cell growth in a cell viability assay.

MDA-MB-361 = type: functional, cell-based, Homo sapiens; conditions: Homo sapiens, MDA-MB-361
HT-29 = type: functional, cell-based, Homo sapiens; conditions: Homo sapiens, HT-29
Description: SANGER: Inhibition of human HT-29 cell growth in a cell viability assay.

OS-RC-2 = type: functional, cell-based, Homo sapiens; conditions: Homo sapiens, OS-RC-2
Description: SANGER: Inhibition of human OS-RC-2 cell growth in a cell viability assay.

TE-1 = type: functional, cell-based, Homo sapiens; conditions: Homo sapiens, TE-1
Description: SANGER: Inhibition of human TE-1 cell growth in a cell viability assay.

SK-UT-1 = type: functional, cell-based, Homo sapiens; conditions: Homo sapiens, SK-UT-1
Description: SANGER: Inhibition of human SK-UT-1 cell growth in a cell viability assay.

## COc1cc(F)c(F)c(Nc2ccc(I)cc2F)c1NS(=O)(=O)C1(CC(O)CO)CC1 (configuration not stated)
U2OS
  IC50: 2.75 µM
KOSC-2
  IC50: 1.68 µM
MIA PaCa-2
  IC50: 2.82 µM
NCI-H446
  IC50: > 5 µM
SW1573
  IC50: > 5 µM
MFM-223
  IC50: > 5 µM
CAMA-1
  IC50: > 5 µM
NMC-G1
  IC50: > 5 µM
EFM-19
  IC50: > 5 µM
A388
  IC50: > 5 µM
KM-H2
  IC50: > 5 µM
U-118-MG
  IC50: > 5 µM
A-431
  IC50: 2.92 µM
Ca9-22
  IC50: 0.981 µM
NH-12
  IC50: 1.2 µM
SK-N-AS
  IC50: 0.0433 µM
ME-180
  IC50: 1.75 µM
NCI-H1650
  IC50: > 5 µM
MC-IXC
  IC50: > 5 µM
JVM-2
  IC50: > 5 µM
LC-2-ad
  IC50: > 5 µM
GP5d
  IC50: > 5 µM
MDA-MB-453
  IC50: > 5 µM
LCLC-97TM1
  IC50: 0.279 µM
ES7
  IC50: > 5 µM
Calu-6
  IC50: > 5 µM
KYSE-520 cell line
  IC50: 2.96 µM
A-375
  IC50: 0.12 µM
EFO-21
  IC50: > 5 µM
D-263MG
  IC50: 0.431 µM
HCE-4
  IC50: > 5 µM
GAMG
  IC50: > 5 µM
COLO-320-HSR
  IC50: > 5 µM
A253 cell line
  IC50: 3.32 µM
SK-N-DZ
  IC50: > 5 µM
RPMI-2650
  IC50: > 5 µM
SW1783
  IC50: > 5 µM
ONS-76
  IC50: 0.5 µM
NCI-H720
  IC50: > 5 µM
HSC-2
  IC50: > 5 µM
HuP-T4
  IC50: 0.514 µM
GT3TKB
  IC50: > 5 µM
SW948
  IC50: > 5 µM
HT-3
  IC50: > 5 µM
MDA-MB-361
  IC50: > 5 µM
HT-29
  IC50: 0.182 µM
OS-RC-2
  IC50: > 5 µM
TE-1
  IC50: > 5 µM

## O=C1N=C(NCc2cccs2)S/C1=C\c1ccc2ncccc2c1
U2OS
  IC50: > 5 µM
SK-UT-1
  IC50: > 5 µM
KOSC-2
  IC50: 3.45 µM
MIA PaCa-2
  IC50: > 5 µM
NCI-H446
  IC50: > 5 µM
SW1573
  IC50: > 5 µM
MFM-223
  IC50: > 5 µM
CAMA-1
  IC50: > 5 µM
NMC-G1
  IC50: > 5 µM
EFM-19
  IC50: > 5 µM
A388
  IC50: > 5 µM
KM-H2
  IC50: > 5 µM
U-118-MG
  IC50: > 5 µM
A-431
  IC50: > 5 µM
Ca9-22
  IC50: > 5 µM
NH-12
  IC50: > 5 µM
SK-N-AS
  IC50: > 5 µM
ME-180
  IC50: > 5 µM
NCI-H1650
  IC50: > 5 µM
MC-IXC
  IC50: > 5 µM
JVM-2
  IC50: > 5 µM
LC-2-ad
  IC50: > 5 µM
GP5d
  IC50: > 5 µM
MDA-MB-453
  IC50: > 5 µM
LCLC-97TM1
  IC50: > 5 µM
ES7
  IC50: > 5 µM
Calu-6
  IC50: > 5 µM
KYSE-520 cell line
  IC50: > 5 µM
A-375
  IC50: > 5 µM
EFO-21
  IC50: > 5 µM
D-263MG
  IC50: > 5 µM
HCE-4
  IC50: > 5 µM
GAMG
  IC50: > 5 µM
COLO-320-HSR
  IC50: > 5 µM
A253 cell line
  IC50: > 5 µM
SK-N-DZ
  IC50: 2.02 µM
RPMI-2650
  IC50: > 5 µM
SW1783
  IC50: > 5 µM
ONS-76
  IC50: > 5 µM
NCI-H720
  IC50: > 5 µM
HSC-2
  IC50: > 5 µM
HuP-T4
  IC50: > 5 µM
GT3TKB
  IC50: > 5 µM
SW948
  IC50: > 5 µM
HT-3
  IC50: > 5 µM
MDA-MB-361
  IC50: > 5 µM
HT-29
  IC50: > 5 µM
OS-RC-2
  IC50: > 5 µM
TE-1
  IC50: > 5 µM
